Values of other authors, collected in patent US20130048853A1, “Adsorbent and Method for Producing Same” (HITACHI HIGH-TECHNOLOGIES CORPORATION, priority 2010, published 2013).
Several values for one entry are separate records, joined by “and”; a condition that tells them apart may be missing. Equal values may be shown once. Read-outs that look alike come from different tables or passages of the source.

[1] = source not stated, calculated or actual values may be applied

SMILES | logP (octanol-water distribution coefficient) [1] | logP (octanol-water distribution coefficient)
CO[C@H]1C[C@@H]2CC[C@@H](C)[C@@](O)(O2)C(=O)C(=O)N2CCCC[C@H]2C(=O)O[C@H]([C@H](C)C[C@@H]2CC[C@@H](O)[C@H](OC)C2)CC(=O)[C@H](C)/C=C(\C)[C@@H](O)[C@@H](OC)C(=O)[C@H](C)C[C@H](C)/C=C/C=C/C=C/1C [rapamycin] | 3.5 | 
O=C1NC(=O)C(c2ccccc2)(c2ccccc2)N1 [phenyloin] |  | 2.5
CO[C@H]1C[C@@H]2CC[C@@H](C)[C@@](O)(O2)C(=O)C(=O)N2CCCC[C@H]2C(=O)O[C@H]([C@H](C)C[C@@H]2CC[C@@H](OCCO)[C@H](OC)C2)CC(=O)[C@H](C)/C=C(\C)[C@@H](O)[C@@H](OC)C(=O)[C@H](C)C[C@H](C)/C=C/C=C/C=C/1C [everolimus] | 3.4 and 3.35 | 
